What was measured:
[1] = biological target: human DT-diaphorase (from the non-small cell lung NCI-H460 cell line) (Homo sapiens, UniProt P15559); assay: DT-diaphorase substrate kinetics (recombinant enzyme, anaerobic, Lineweaver-Burke); format: biochemical
Description: Listed in Tables 1-4 are the human DT-diaphorase kinetic parameters for Series 1-9, along with the DNA alkylation percentages. These parameters include the apparent dissociation constant KM, the apparent maximal velocity VMAX, and the substrate specificity, VMAX/KM. The designation “apparent” refers to the present of productive and nonproductive constants in KM and VMAX. {Fersht, A. R., The Hydrogen Bond in Molecular Recognition Trends, Biochem. Sci., 1987, 12, 301-304} These constants cancel in the ratio VMAX/KM, which is the best parameter to compare substrates. Human DT-diaphorase (from the non-small cell lung NCI-H460 cell line) {Beall, H. D., Mulcahy, R. T., Siegel, D., Traver, R D., Gibson, N. W., and Ross, D., Metabolism of Bioreductive Antitumor Compounds by Purified Rat and Human DT-Diaphorase Cancer Res., 1994, 54, 3196-3201 } was used to obtain these kinetic parameters. This enzyme is the same as that present in other human tissues, cancerous or otherwise.
Kinetics Studies using Recombinant DT-diaphorase. Kinetics studies were carried out in 0.05 M pH 7.4 Tris buffer under anaerobic conditions, employing Thunberg cuvettes. […] To calculate Vmax, the value of □□ must be obtained. □□ was calculated from the initial and final absorbances for complete quinone reduction; all values are between 8000 to 9000 M^−1 cm^−1. […]

600 bp calf thymus DNA = assay: DNA reductive alkylation by catalytically reduced aziridinyl quinones; format: biochemical
Description: DNA Alkylation Screening of Series 1-9. The extent of DNA reductive alkylation was determined by catalytic reduction of the aziridinyl quinones in the presence of 600 bp calf thymus DNA. Oxidative workup afforded DNA colored blue as a result of the aminoquinone chromophore. […] The anaerobic conditions employed for DNA reductive alkylation assays is not meant to mimic the environment of tumor cells. These conditions do permit an accurate assessment of the structural requirements for DNA alkylation by the hydroquinone species. To be sure, agents incapable of akylating DNA under these ideal conditions will not do so in the typical cellular environment.
Alkylation of DNA by Reduced Indoloquinones. To a mixture of 1-2 mg of sonicated (600 bp) calf thymus DNA in 2.0 mL of 0.05 M of pH 7.4 tris buffer and 2 mg of Pd on carbon was added a five-to-one base pair equivalent amount of the indoloquinone dissolved in 0.5 mL of dimethylsulfoxide. The resulting solution was degassed under argon for 30 min., after which the mixture was purged with H2 for 10 min. The solution was then purged with argon for 10 min. and placed in a 30° C. bath for 24 h. The reaction was opened to the air and the catalyst was removed with a Millex-PF […] syringe filter. The filtrate was adjusted to 0.3 M acetate with a 3 M stock solution of pH 5.1 acetate and then diluted with two volumes of ethanol. The mixture was chilled at −20° C. for 12 h and the DNA pellet collected by centrifuging at 12,000 g for 20 min. The pellet was redissolved in water and then precipitated and centrifuged again. The resulting blue or red pellet was suspended in ethanol, centrifuged, and dried. The dried pellet was weighed and dissolved in 1 mL of double distilled water resulting in a clear colored solution with […]max˜550 nm, □˜750 M^−1 cm^−1. This is the chromophore of the aminoquinone resulting from nucleophile-mediated opening of the aziridine ring. Model 2′-chloroethyl aminoquinones for extinction coefficient determination were prepared by treatment of the indoloquinone with HCl. {Skibo, E. B. and Xing, C., Chemistry and DNA Alkylation Reactions of Aziridinyl Quinones: Development of an Efficient Alkylating Agent of the Phosphate Backbone, Biochemistry, 1998, 37, 15199-15213}.

[2] = system: NCI-H460 non-small-lung cancer cell line; assay: NCI In Vitro Cell Line Screening, NSC H460 cell line; format: cell-based
Description: Cytotoxic and Cytostatic Screening of Series 1-9.

[3] = system: National Cancer Institute 60-cell line; assay: NCI 60-cell line in vitro screen (average cytotoxicity and cancer specificity)
Description: Cytotoxic and Cytostatic Screening of Series 1-9. […] The cytostatic parameters include GI50 and TGI, which are the concentrations of drug required for 50% growth inhibition and total growth inhibition, respectively. The cytotoxic parameter is the LC50, which is the concentration required for 50% cell kill.
4. […] Cancer specificity is measured from the ± value under the “Average Log LC50 60-Cell Line” heading of Table 5. A ± value greater than 2 indicates a greater than 100-fold higher/lower cytotoxicity in some histological cancer types compared to the mean cytotoxicity.
The DT-diaphorase levels in the National Cancer Institute 60-cell line in vitro screen have been determined and correlated with the cytotoxicity of antitumor agents activated by 2-electron reduction. {Fitzsimmons, S. A., Workman, P., Grever, M., Paull, K., Camalier, R., and Lewis, A. D., Reductase Enzyme Expression Across the National Cancer Institute Tumor Cell Line Panel: Correlation with Sensitivity To Mitomycin C and EO9, J. Natl. Cancer Inst., 1996, 88, 259-69}. Sensitive cancers usually include NSC lung and colon cancers (and to a lesser extent CNS, melanoma, and renal cancers) by virtue of their elevated DT-diaphorase levels.

Sequence of human DT-diaphorase (from the non-small cell lung NCI-H460 cell line) (P15559 whole entry): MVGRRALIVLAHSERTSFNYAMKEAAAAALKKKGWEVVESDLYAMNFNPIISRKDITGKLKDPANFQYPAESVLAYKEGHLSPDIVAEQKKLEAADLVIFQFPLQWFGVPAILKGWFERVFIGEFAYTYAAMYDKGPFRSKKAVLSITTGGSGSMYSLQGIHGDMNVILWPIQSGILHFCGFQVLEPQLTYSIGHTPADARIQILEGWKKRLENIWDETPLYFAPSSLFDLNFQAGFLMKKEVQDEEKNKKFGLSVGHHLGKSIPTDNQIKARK

For CCOC(=O)c1[nH]c2c(c1COC(C)=O)C(=O)C(N1CC1)=CC2=O [Compound 6d, 3-Acetoxymethyl-5-aziridinyl-2-ethoxycarbonylindole-4,7-dione], the DT-diaphorase specificity [1] was 0.0072 M⁻¹ s⁻¹, the “% of DNA bases reductively activated” value (600 bp calf thymus DNA) was 91.2% and the “DNA alkylation (in words)” value (600 bp calf thymus DNA) was “high DNA alkylation percentages”. The DNA alkylation percentage (600 bp calf thymus DNA; catalytic reduction, anaerobic, pH 7.4 tris buffer, 30° C., 24 h, absorbance at 550 nm) was 91.2%, the GI50 ([2]; Homo sapiens, NCI-H460, concentration for 50% growth inhibition, read-out: Log GI50 NSC H460 (converted)) was 37.2 nM and the CC50 ([2]; Homo sapiens, NCI-H460, read-out: Log LC50 NSC H460, concentration for 50% cell kill (converted)) was 603 nM. The “Log TGI NSC H460” value ([2]; concentration for total growth inhibition) was −6.77, the “± value of Average Log LC50 60-Cell Line” value [3] was ~1 and the “Average Log LC50 60-Cell Line” value ([3]; mean over 60 cell lines, ± value measures cancer specificity) was −5.62 ± 1.05.
